Reference: ChEMBL document CHEMBL4152336, “Optimization of the first small-molecule relaxin/insulin-like family peptide receptor (RXFP1) agonists: Activation results in an antifibrotic gene expression profile” (Eur J Med Chem, 2018)
In brackets after ≈: the same amount, converted by molar mass. Activity calls are given as the source filed them. The calls are words filed in the database; no cut-off is given here.

How the values were obtained:
[1] = Aqueous kinetic solubility of the compound in PBS by shake-flask method; type: physicochemical; details: PBS; read-out: Kinetic_solubility
Mus musculus [2] = test: Toxicity in C57/BL6 mouse at 3 to 30 mg/kg, po; type: organism-based; details: in vivo
Mus musculus [3] = test: Toxicity in C57/BL6 mouse assessed as abnormal behavior at 3 to 30 mg/kg, iv; type: organism-based; details: in vivo
Mus musculus [4] = test: Toxicity in C57/BL6 mouse assessed as mouse death at 90 to 3000 mg/kg, po treated for 5 days measured at day 5 post last dose; type: organism-based; details: in vivo, 120 h
[5] = Drug level in C57/BL6 mouse heart at 3 mg/kg, iv after 0.25 hrs; type: ADME, organism-based; details: in vivo
[6] = Drug level in C57/BL6 mouse heart at 3 mg/kg, iv after 0.5 hrs; type: ADME, organism-based; details: in vivo
[7] = Drug level in C57/BL6 mouse heart at 3 mg/kg, iv after 1 hr; type: ADME, organism-based; details: in vivo
[8] = Drug level in C57/BL6 mouse heart at 3 mg/kg, iv after 2 hrs; type: ADME, organism-based; details: in vivo
[9] = Drug level in C57/BL6 mouse heart at 3 mg/kg, iv after 7 hrs; type: ADME, organism-based; details: in vivo
[10] = Drug level in C57/BL6 mouse heart at 30 mg/kg, po after 0.17 hrs; type: ADME, organism-based; details: in vivo
[11] = Drug level in C57/BL6 mouse heart at 30 mg/kg, po after 0.5 hrs; type: ADME, organism-based; details: in vivo
[12] = Drug level in C57/BL6 mouse heart at 30 mg/kg, po after 1 hr; type: ADME, organism-based; details: in vivo
[13] = Drug level in C57/BL6 mouse heart at 30 mg/kg, po after 2 hrs; type: ADME, organism-based; details: in vivo
[14] = Drug level in C57/BL6 mouse heart at 30 mg/kg, po after 3 hrs; type: ADME, organism-based; details: in vivo
[15] = Drug level in C57/BL6 mouse heart at 30 mg/kg, po after 5 hrs; type: ADME, organism-based; details: in vivo
[16] = Drug level in C57/BL6 mouse heart at 30 mg/kg, po after 7 hrs; type: ADME, organism-based; details: in vivo
[17] = Drug level in C57/BL6 mouse heart at 30 mg/kg, po after 24 hrs; type: ADME, organism-based; details: in vivo, BLD = below limit of detection
Mus musculus [18] = test: Toxicity in C57/BL6 mouse assessed as body weight at 300 mg/kg, po treated for 5 days measured at day 1 post last dose (reference value: 20.3 +/- 2.6 g); type: organism-based; details: in vivo, 120 h
Mus musculus [19] = test: Toxicity in C57/BL6 mouse assessed as body weight at 3000 mg/kg, po treated for 5 days measured at day 1 post last dose (reference value: 20.3 +/- 2.6 g); type: organism-based; details: in vivo, 120 h
Mus musculus [20] = test: Toxicity in C57/BL6 mouse assessed as body weight at 300 mg/kg, po treated for 5 days measured at day 2 post last dose (reference value: 19.8 +/- 2.3 g); type: organism-based; details: in vivo, 120 h
Mus musculus [21] = test: Toxicity in C57/BL6 mouse assessed as body weight at 3000 mg/kg, po treated for 5 days measured at day 2 post last dose (reference value: 19.8 +/- 2.3 g); type: organism-based; details: in vivo, 120 h
Mus musculus [22] = test: Toxicity in C57/BL6 mouse assessed as body weight at 90 mg/kg, po treated for 5 days measured at day 3 post last dose (reference value: 19.8 +/- 2.5 g); type: organism-based; details: in vivo, 120 h
Mus musculus [23] = test: Toxicity in C57/BL6 mouse assessed as body weight at 300 mg/kg, po treated for 5 days measured at day 3 post last dose (reference value: 19.8 +/- 2.5 g); type: organism-based; details: in vivo, 120 h
Mus musculus [24] = test: Toxicity in C57/BL6 mouse assessed as body weight at 3000 mg/kg, po treated for 5 days measured at day 3 post last dose (reference value: 19.8 +/- 2.5 g); type: organism-based; details: in vivo, 120 h
Mus musculus [25] = test: Toxicity in C57/BL6 mouse assessed as body weight at 90 mg/kg, po treated for 5 days measured at day 4 post last dose (reference value: 20.1 +/- 2.8 g); type: organism-based; details: in vivo, 120 h
Mus musculus [26] = test: Toxicity in C57/BL6 mouse assessed as body weight at 300 mg/kg, po treated for 5 days measured at day 4 post last dose (reference value: 20.1 +/- 2.8 g); type: organism-based; details: in vivo, 120 h
Mus musculus [27] = test: Toxicity in C57/BL6 mouse assessed as body weight at 3000 mg/kg, po treated for 5 days measured at day 4 post last dose (reference value: 20.1 +/- 2.8 g); type: organism-based; details: in vivo, 120 h
Mus musculus [28] = test: Toxicity in C57/BL6 mouse assessed as body weight at 3000 mg/kg, po treated for 5 days measured at day 5 post last dose (reference value: 20.3 +/- 2.8 g); type: organism-based; details: in vivo, 120 h
Mus musculus [29] = test: Toxicity in C57/BL6 mouse assessed as body weight at 300 mg/kg, po treated for 5 days measured at day 6 post last dose (reference value: 20.6 +/- 2.6 g); type: organism-based; details: in vivo, 120 h
Mus musculus [30] = test: Toxicity in C57/BL6 mouse assessed as body weight at 3000 mg/kg, po treated for 5 days measured at day 6 post last dose (reference value: 20.6 +/- 2.6 g); type: organism-based; details: in vivo, 120 h
Mus musculus [31] = test: Toxicity in C57/BL6 mouse assessed as body weight at 3000 mg/kg, po treated for 5 days measured at day 7 post last dose (reference value: 20.6 +/- 2.9 g); type: organism-based; details: in vivo, 120 h
Mus musculus [32] = test: Toxicity in C57/BL6 mouse assessed as body weight at 90 mg/kg, po treated for 5 days measured at day 8 post last dose (reference value: 20.6 +/- 2.8 g); type: organism-based; details: in vivo, 120 h
Mus musculus [33] = test: Toxicity in C57/BL6 mouse assessed as body weight at 3000 mg/kg, po treated for 5 days measured at day 8 post last dose (reference value: 20.6 +/- 2.8 g); type: organism-based; details: in vivo, 120 h
Mus musculus [34] = test: Toxicity in C57/BL6 mouse assessed as body weight at 90 mg/kg, po treated for 5 days measured at day 9 post last dose (reference value: 20.7 +/- 2.9 g); type: organism-based; details: in vivo, 120 h
Mus musculus [35] = test: Toxicity in C57/BL6 mouse assessed as body weight at 300 mg/kg, po treated for 5 days measured at day 9 post last dose (reference value: 20.7 +/- 2.9 g); type: organism-based; details: in vivo, 120 h
Mus musculus [36] = test: Toxicity in C57/BL6 mouse assessed as body weight at 3000 mg/kg, po treated for 5 days measured at day 9 post last dose (reference value: 20.7 +/- 2.9 g); type: organism-based; details: in vivo, 120 h
Mus musculus [37] = test: Toxicity in C57/BL6 mouse assessed as body weight at 90 mg/kg, po treated for 5 days measured at day 10 post last dose (reference value: 20.7 +/- 2.6 g); type: organism-based; details: in vivo, 120 h
Mus musculus [38] = test: Toxicity in C57/BL6 mouse assessed as body weight at 3000 mg/kg, po treated for 5 days measured at day 10 post last dose (reference value: 20.7 +/- 2.6 g); type: organism-based; details: in vivo, 120 h
Homo sapiens [39] = species: Homo sapiens; test: Down regulation of CTGF gene expression in human HSC at 5 uM after 24 to 72 hrs by RT-qPCR analysis; type: functional
Homo sapiens [40] = species: Homo sapiens; test: Upregulation of MMP1 gene expression in human HSC at 5 uM after 24 to 72 hrs by RT-qPCR analysis; type: functional
Homo sapiens [41] = species: Homo sapiens; test: Upregulation of PPARGC1A gene expression in human HSC at 5 uM after 24 to 72 hrs by RT-qPCR analysis; type: functional

CC(C)Oc1ccccc1C(=O)Nc1ccccc1C(=O)Nc1cccc(S(=O)(=O)C(F)(F)F)c1
solubility kinetic [1]: 7 µM (≈ 3.55 µg/mL) | Activity (Mus musculus [2]): Non-Toxic | Activity (Mus musculus [3]): Non-Toxic | Activity (Mus musculus [4]): Non-Toxic | Drug uptake [5]: 2.084 µmol/kg | Drug uptake [6]: 2.001 µmol/kg | Drug uptake [7]: 1.395 µmol/kg | Drug uptake [8]: 1.206 µmol/kg | Drug uptake [9]: 0.394 µmol/kg | Drug uptake [10]: 0.926 µmol/kg | Drug uptake [11]: 1.428 µmol/kg | Drug uptake [12]: 1.041 µmol/kg | Drug uptake [13]: 1.016 µmol/kg | Drug uptake [14]: 0.995 µmol/kg | Drug uptake [15]: 0.256 µmol/kg | Drug uptake [16]: 0.067 µmol/kg | Drug uptake [17]: Bld | Activity (Mus musculus [18]): 20.4 g | Activity (Mus musculus [19]): 20.6 g | Activity (Mus musculus [20]): 20.1 g | Activity (Mus musculus [21]): 20.6 g | Activity (Mus musculus [22]): 19.9 g | Activity (Mus musculus [23]): 20.4 g | Activity (Mus musculus [24]): 20.6 g | Activity (Mus musculus [25]): 20 g | Activity (Mus musculus [26]): 20.4 g | Activity (Mus musculus [27]): 20.7 g | Activity (Mus musculus [28]): 20.8 g | Activity (Mus musculus [29]): 20.8 g | Activity (Mus musculus [30]): 21.1 g | Activity (Mus musculus [31]): 21.2 g | Activity (Mus musculus [32]): 20.6 g | Activity (Mus musculus [33]): 21.1 g | Activity (Mus musculus [34]): 20.8 g | Activity (Mus musculus [35]): 21 g | Activity (Mus musculus [36]): 21.2 g | Activity (Mus musculus [37]): 20.8 g | Activity (Mus musculus [38]): 21.3 g | Activity (Homo sapiens [39]): Active | Activity (Homo sapiens [40]): Active | Activity (Homo sapiens [41]): Active
